Values of other authors, collected in patent US20040121025A1, “Oral composition for the treatment and prevention of bone loss” (priority 2002, published 2004).

Assays:
bone mineral density = settings: women treated with Lupron for six months; supplemental calcium; placebo decreased significantly
bone loss [1] = settings: premenopausal women
[2] = tested on: parathyroid hormone, vitamin D, prostaglandin E2, and interleukin 1-beta; settings: animal study, prostaglandin E2, interleukin 1-beta
[3] = tested on: bone demineralization / bone loss; settings: with supplemental calcium
bone loss [4] = settings: animal studies
bone loss [5] = settings: men
bone mass [6] = tested on: bone mass
bone mass [7] = settings: 200 mg three times daily; two years; women age 50-65; placebo groups had significant bone loss
[8] = tested on: parathyroid-stimulated osteoclastic activity; settings: ipriflavone supplementation in rats
estrogen like effects = settings: unlike many of the other isoflavones
osteoporosis [9] = settings: elderly women over the age of 65
osteoporosis [10] = settings: including a form of vitamin D commonly used for osteoporosis
bone loss [11] = settings: animal studies; remark: listed apart in the source

CC(C)Oc1ccc2c(=O)c(-c3ccccc3)coc2c1 [ipriflavone, 7-isopropoxysioflavone]
bone density (bone mineral density): no changes in bone density
rapid bone loss that follows ovariectomy (bone loss [1]): prevents the rapid bone loss that follows ovariectomy
inhibition of compounds involved in increased resorption of bone [2]: inhibited a number of compounds known to be involved in increased resorption of bone
safety and efficacy in halting bone loss ([3]; post-menopausal women or women who have had their ovaries removed): safe and effective in halting bone loss
halting bone demineralization ([3]; postmenopausal women): effective in halting bone demineralization
bone loss associated with long term steroid use (bone loss [4]): inhibited bone loss
preventing bone loss (bone loss [5]): effective in preventing bone loss in men
maintaining bone mass with lower doses of estrogen (bone mass [6]; 0.15-0.30 mg/day estrogen with ipriflavone versus 0.625 mg/day or higher): equally effective in maintaining bone mass
effect on the effects of estrogen on bone (bone mass [6]; in vivo): enhance the effects of estrogen on bone
bone mass (bone mass [7]): maintained or improved slightly
parathyroid-stimulated osteoclastic activity and resulting hypercalcemia [8]: inhibited in a dosedependent manner
estrogen like effects (estrogen like effects): does not exhibit estrogen like effects
treatment of osteoporosis (osteoporosis [9]): particularly effective
effect on other bone-preserving agents (osteoporosis [10]): enhance the effect of other bone-preserving agents
bone loss associated with immobilization (bone loss [11]): inhibited bone loss
